# Test results reported in PMC12227055 (Science Advances, 2025).
# Columns and labels:
# CryoR1_1–263 = molecular target: T1, CryoR1_1–263 (Cryobacterium levicorallinum, UniProt A0A1I3DJQ0); test: UV-Vis absorption and flash photolysis of purified holoprotein; format: binding; conditions: covalent Schiff base; detergent; pH 8.0
# T1 construct: gene E3O11_09160
# T1 sequence (A0A1I3DJQ0 3-265): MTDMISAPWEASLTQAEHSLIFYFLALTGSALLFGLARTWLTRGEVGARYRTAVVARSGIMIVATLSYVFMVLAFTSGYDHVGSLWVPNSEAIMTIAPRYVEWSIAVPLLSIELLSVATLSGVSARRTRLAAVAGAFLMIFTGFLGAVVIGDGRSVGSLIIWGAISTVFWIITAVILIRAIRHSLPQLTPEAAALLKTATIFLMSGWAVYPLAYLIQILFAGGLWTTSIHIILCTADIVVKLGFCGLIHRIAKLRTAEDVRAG
# CryoR4 = molecular target: T2, CryoR4 (Subtercola vilae, UniProt A0A4T2CD69); test: as above; format: binding; conditions: covalent Schiff base; detergent; pH 8.0
# T2 construct: gene D4765_01930
# T2 sequence (A0A4T2CD69 1-317): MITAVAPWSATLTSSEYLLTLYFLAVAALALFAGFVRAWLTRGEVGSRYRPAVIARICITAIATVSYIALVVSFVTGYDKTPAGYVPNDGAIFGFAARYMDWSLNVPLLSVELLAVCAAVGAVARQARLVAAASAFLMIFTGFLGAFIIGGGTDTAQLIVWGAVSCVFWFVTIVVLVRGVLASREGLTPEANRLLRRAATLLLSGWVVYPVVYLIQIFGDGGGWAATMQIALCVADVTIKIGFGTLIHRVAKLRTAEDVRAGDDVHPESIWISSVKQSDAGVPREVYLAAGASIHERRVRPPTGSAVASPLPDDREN
# CryoR1 [1] = molecular target: T3, CryoR1 (Cryobacterium levicorallinum, UniProt A0A1I3DJQ0); test: cryo-EM structure (ground state); format: binding; conditions: covalent Schiff base (K241); pH 4.3, 8.0 and 10.5; detergent micelles or nanodisc
# T3 construct: gene E3O11_09160
# T3 sequence (A0A1I3DJQ0 3-327): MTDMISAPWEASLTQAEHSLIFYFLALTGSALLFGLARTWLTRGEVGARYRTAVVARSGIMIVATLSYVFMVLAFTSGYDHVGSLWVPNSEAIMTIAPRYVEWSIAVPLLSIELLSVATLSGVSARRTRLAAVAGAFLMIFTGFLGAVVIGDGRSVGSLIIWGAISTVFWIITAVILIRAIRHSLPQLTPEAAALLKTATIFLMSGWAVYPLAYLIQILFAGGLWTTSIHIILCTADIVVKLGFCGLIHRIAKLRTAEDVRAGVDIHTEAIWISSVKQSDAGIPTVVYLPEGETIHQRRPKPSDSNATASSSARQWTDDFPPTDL
# CryoR5 = molecular target: T4, CryoR5 (Subtercola boreus, UniProt A0A3E0VLV3); test: UV-Vis absorption and flash photolysis of purified holoprotein; format: binding; conditions: covalent Schiff base; detergent; pH 8.0
# T4 construct: gene B7R54_12135
# T4 sequence (A0A3E0VLV3 1-318): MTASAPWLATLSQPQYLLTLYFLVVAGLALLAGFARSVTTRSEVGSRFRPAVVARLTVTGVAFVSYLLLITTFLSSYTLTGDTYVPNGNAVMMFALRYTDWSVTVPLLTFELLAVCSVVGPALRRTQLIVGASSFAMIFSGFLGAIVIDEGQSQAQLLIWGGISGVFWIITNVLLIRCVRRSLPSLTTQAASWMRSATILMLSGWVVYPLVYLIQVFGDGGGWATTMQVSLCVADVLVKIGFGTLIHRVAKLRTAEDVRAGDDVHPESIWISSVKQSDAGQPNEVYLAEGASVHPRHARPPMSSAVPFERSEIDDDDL
# CryoR1 [2] = molecular target: T5, CryoR1 (Cryobacterium levicorallinum, UniProt A0A1I3DJQ0, R59T); test: as above; format: binding; conditions: covalent Schiff base (K241); detergent; pH 8.0 and 10.5
# T5 construct: gene E3O11_09160
# T5 sequence (A0A1I3DJQ0 entry or part of it R59T): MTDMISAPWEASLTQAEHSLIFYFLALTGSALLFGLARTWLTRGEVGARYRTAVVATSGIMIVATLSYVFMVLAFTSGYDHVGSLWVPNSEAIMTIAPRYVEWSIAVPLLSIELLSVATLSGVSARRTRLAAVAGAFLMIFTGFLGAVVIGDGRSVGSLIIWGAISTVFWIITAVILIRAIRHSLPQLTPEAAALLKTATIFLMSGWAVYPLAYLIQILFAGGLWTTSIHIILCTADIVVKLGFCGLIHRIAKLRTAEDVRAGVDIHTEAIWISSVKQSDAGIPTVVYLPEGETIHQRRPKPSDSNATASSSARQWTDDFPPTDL
# CryoR3 = molecular target: T6, CryoR3 (Cryobacterium frigoriphilum, UniProt A0A4R8ZY77); test: as above; format: binding; conditions: covalent Schiff base; detergent; pH 8.0
# T6 construct: gene E3T55_12175
# T6 sequence (A0A4R8ZY77 42-365): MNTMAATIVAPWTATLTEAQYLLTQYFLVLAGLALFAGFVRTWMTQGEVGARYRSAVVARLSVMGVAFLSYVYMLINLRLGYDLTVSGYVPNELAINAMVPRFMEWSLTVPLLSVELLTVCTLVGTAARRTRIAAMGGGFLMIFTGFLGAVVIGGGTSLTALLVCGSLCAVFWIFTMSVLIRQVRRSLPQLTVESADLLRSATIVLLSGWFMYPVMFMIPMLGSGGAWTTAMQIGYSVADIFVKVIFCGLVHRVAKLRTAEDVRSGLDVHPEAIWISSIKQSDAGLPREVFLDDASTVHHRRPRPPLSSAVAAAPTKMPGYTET
# [3] = molecular target: CryoRhodopsin 2 (CryoR2) from Subtercola sp. AK-R2A1-2 (Subtercola sp. AK-R2A1-2); test: cryo-EM structure
# [4] = molecular target: CryoRhodopsin 2 (CryoR2) from Subtercola sp. AK-R2A1-2 (Subtercola sp. AK-R2A1-2); test: crystal structure
# CryoR1 [5] = molecular target: T3, CryoR1; test: cryo-EM structure (light-accumulated M2 state), […] A; format: binding; conditions: covalent deprotonated Schiff base (K241); photoproduct formed in situ from all-trans-retinal; pH 10.5; 530/532 nm illumination
# [6] = molecular target: CryoRhodopsin 1 (CryoR1) from Cryobacterium levicorallinum, wild type (Cryobacterium levicorallinum); test: SEC
# [7] = molecular target: CryoRhodopsin 1 (CryoR1) from Cryobacterium levicorallinum, wild type (Cryobacterium levicorallinum); test: cryo-EM structure
# [8] = molecular target: CryoRhodopsin 1 (CryoR1) from Cryobacterium levicorallinum, wild type (Cryobacterium levicorallinum); test: cryo-EM structure; remark: listed apart in the source
molecule,measurement,setting,value
CC1=C(/C=C/C(C)=C/C=C/C(C)=C/C=O)C(C)(C)CCC1 [all-trans-retinal],UV-Vis absorption and flash photolysis of purified holoprotein,CryoR1_1–263,spectral properties of the truncated variant of CryoR1
same,UV-Vis absorption and flash photolysis of purified holoprotein,CryoR4,CryoR1-5 differ in their UV–visible (Vis) absorption spectra
same,cryo-EM structure (ground state),CryoR1 [1],"presence of a single state, which we assigned to the ground state"
same,UV-Vis absorption and flash photolysis of purified holoprotein,CryoR5,CryoR1-5 differ in their UV–visible (Vis) absorption spectra
same,UV-Vis absorption and flash photolysis of purified holoprotein,CryoR1 [2],we studied the spectroscopic properties of the R57T mutant of CryoR1
same,UV-Vis absorption and flash photolysis of purified holoprotein,CryoR3,CryoR1-5 differ in their UV–visible (Vis) absorption spectra
CryoRhodopsin 2 (CryoR2) from Subtercola sp. AK-R2A1-2 (natural protein),stoichiometry N,[3],5
same,stoichiometry N,[4],5
CC1=C(/C=C/C(C)=C/C=C/C(C)=C\C=O)C(C)(C)CCC1 [13-cis retinal],"cryo-EM structure (light-accumulated M2 state), 2.3 A",CryoR1 [5],strongly suggests the 13-cis conformation of the cofactor in the M2 state
"CryoRhodopsin 1 (CryoR1) from Cryobacterium levicorallinum, wild type (natural protein)",stoichiometry N,[6],5
same,stoichiometry N,[7],5
same,stoichiometry N,[8],5
